The values below come from PubChem BioAssay (NCI).

Among the test systems are NCI-H226 lung; PC-3 prostate; EKVX NSCLC; A549 NSCLC; DU-145 prostate; MCF7 breast; NCI-H460 lung; HCT-116 colon; CAKI-1 renal; SW-620 colon.
What all share (assay): growth of human tumour cells (NCI), 48 h

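Grown in 96-well plates, cells were treated for 48 hours with each compound at five concentrations. Insufficient inhibition: endpoint recorded as highest concentration tested. TGI is the concentration that stops growth completely.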

In the case of `NC(=O)[C@H](Cc1ccc(O)cc1)Nc1c(O)c2c(c(O)c1Cl)C(=O)C=CC2=O`, the TGI with NCI-H226 lung was above 10 µM; in the test with PC-3 prostate, 5.85 µM; in the test with EKVX NSCLC it was above 10 µM; in the test on A549 NSCLC it was above 10 µM; in the test on DU-145 prostate, above 10 µM; in the test on MCF7 breast, 2.97 µM. Also, the TGI with NCI-H460 lung was above 10 µM; in the test on HCT-116 colon it was 3.27 µM; with CAKI-1 renal it was 5.18 µM; in the test on SW-620 colon, 2.82 µM.

With `Cc1c(C)c2c(c(N)c1C#N)C(=O)N(N)C2=O`, the TGI with NCI-H226 lung, in the test on PC-3 prostate, in the test on EKVX NSCLC, with A549 NSCLC, with DU-145 prostate and in the test with MCF7 breast was above 100 µM in each case. Besides, the TGI with NCI-H460 lung, in the test on HCT-116 colon, in the test on CAKI-1 renal and in the test with SW-620 colon was above 100 µM in each case.

As to `N#Cc1nc(CCc2nc(C#N)c(N)o2)oc1N`, the TGI in the test on NCI-H226 lung, with PC-3 prostate, with EKVX NSCLC, with A549 NSCLC, with DU-145 prostate and with MCF7 breast was above 10 µM each time. For the same molecule, the TGI in the test with NCI-H460 lung, in the test with HCT-116 colon, with CAKI-1 renal and in the test on SW-620 colon was above 10 µM in each case.

Take `C=C1c2nc3ccccc3n2C=C(c2ccc(C)cc2)N1c1ccc(OC)cc1`: the TGI in the test on NCI-H226 lung, in the test on PC-3 prostate, in the test on EKVX NSCLC, in the test on A549 NSCLC, in the test on DU-145 prostate and in the test on MCF7 breast was above 100 µM in each case. Also, the TGI with NCI-H460 lung is above 100 µM; in the test with HCT-116 colon it was above 100 µM; in the test on CAKI-1 renal, above 96.9 µM; with SW-620 colon, above 100 µM.

On to `O=C(O)c1c(CC(Cc2ccc3c(c2)CCC3)C(=O)O)ccc2c1CCC2` (stereo not given), for which the TGI with NCI-H226 lung, in the test with PC-3 prostate, with EKVX NSCLC, in the test on A549 NSCLC, in the test on DU-145 prostate and in the test on MCF7 breast was above 100 µM throughout. Further, the TGI with NCI-H460 lung, in the test with HCT-116 colon, in the test with CAKI-1 renal and in the test with SW-620 colon was above 100 µM each time.
